Results on 12 compounds are retold here after article PMC7043210, “Differential activation of G protein‐mediated signaling by synthetic cannabinoid receptor agonists” (Pharmacology Research & Perspectives, 2020).

“Also recorded” adds a separate entry of the source. Read-outs that look alike come from different tables or passages of the source.

Series [1] concerns the target T1, human CB1 receptor (Homo sapiens, UniProt P21554).
T1 construct: HA (hemagglutinin); expressed in transfected cells; host or cells: HEK 293 FlpIn cells with GIRK4 expression, stably transfected (pcDNA5/FRT + pOG44)
Type of series: cell-based.

Another series relates to HEK 293 wild‐type cells. Description: FSK-stimulated cAMP accumulation in HEK 293 wild-type cells (not containing CB1 receptors). The settings on record: 10 µmol L^−1, HEK 293 wild-type cells. Type of series: cell-based, human.
The test system of series [2] is CB1. On the set-up: method as in PMID 29408093. The settings on record: HEK cells transiently expressing CB1; cited from earlier work.
In series [3] the test system is CB1. On the set-up: method as in PMID 30925348, PMID 26795398, PMID 29042214, PMID 28874764, PMID 25769232. Particulars: mice; cited from earlier work.
Series [4] addresses T1, human CB1 receptor. In kind it is cell-based. The source holds these as a separate data set.
Setting [5] is: read-out: G s (+PTX) EC50 (converted).
The mark [6] stands for this setting: read-out: G i (‐PTX) EC50 (converted).
[7] abbreviates: read-out: Gs (+PTX) EC50 (converted).

T1 sequence (P21554 whole entry): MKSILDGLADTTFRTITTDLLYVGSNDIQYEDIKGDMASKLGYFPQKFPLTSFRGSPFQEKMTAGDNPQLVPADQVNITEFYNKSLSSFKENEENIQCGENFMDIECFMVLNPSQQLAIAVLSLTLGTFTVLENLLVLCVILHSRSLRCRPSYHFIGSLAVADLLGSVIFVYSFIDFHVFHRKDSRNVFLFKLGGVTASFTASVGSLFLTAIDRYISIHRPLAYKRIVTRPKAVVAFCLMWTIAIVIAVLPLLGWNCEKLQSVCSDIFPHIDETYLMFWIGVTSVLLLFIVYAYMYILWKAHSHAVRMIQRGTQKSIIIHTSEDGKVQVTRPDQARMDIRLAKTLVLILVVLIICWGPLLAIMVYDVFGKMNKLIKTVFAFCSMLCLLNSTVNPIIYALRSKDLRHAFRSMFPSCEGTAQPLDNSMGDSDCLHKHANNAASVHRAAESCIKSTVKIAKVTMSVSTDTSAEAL

As for `CC(C)[C@H](NC(=O)c1nn(CC2CCCCC2)c2ccccc12)C(N)=O`, on human CB1 receptor [1], the “effect of SR141716A pretreatment on SCRA-mediated stimulation of FSK-induced cAMP response” value (from here on “effect … of FSK-induced cAMP response”) is “only partially inhibited; also recorded: not significantly different” and the “increase in cAMP levels above that of FSK alone” value turned out to be 86 ± 21%. Besides, the “increase in FSK‐stimulated cAMP accumulation” value in the series on HEK 293 wild‐type cells is 29 ± 10%. Besides, the “effect on cAMP levels in absence and presence of forskolin” value in the series with CB1 [2] is on record as “elevation in cAMP levels”.
Consider `CCCCC/C=C\C/C=C\C/C=C\C/C=C\CCCC(=O)OC(CO)CO` [2‐AG, 2‐arachidonoyl glycerol, reference compound], for which, at human CB1 receptor [1], the “effect on cAMP relative to CP55940” value was “approximately twice that of CP55940”.
On to `CC(C)[C@H](NC(=O)c1nn(CCCCCF)c2ccccc12)C(N)=O` [5F‐AB‐PINACA], for which, in the series on CB1 [3], the “induced seizures, mechanism” value is reported as “CB1‐mediated”.
With `COC(=O)[C@@H](NC(=O)c1cn(CCCCCF)c2ccccc12)C(C)(C)C` [5F‐MDMB‐PICA], on human CB1 receptor [1], the “G s (+PTX) E max (% FSK)” value is given as 126 ± 5 % FSK, the “G s (+PTX) pEC50” value is reported as 7.1 ± 0.4 (85) and the “effect … of FSK-induced cAMP response” value is given as “inhibited”. At human CB1 receptor [1] (setting [5]), the EC50 is 85 nM. At human CB1 receptor [4], the “G i (‐PTX) E max (% FSK)” value is recorded as 60 ± 4 % FSK, the “G i (‐PTX) pEC50” value is listed as 9.2 ± 0.2 (0.62), the “G i (−PTX) selectivity” value was 137 and the “effect of SR141716A pretreatment on SCRA-induced inhibition of cAMP signaling” value is recorded as “blocked”. Moreover, the EC50 at human CB1 receptor [4] (setting [6]) was 0.62 nM.
In the case of `CC(C)[C@H](NC(=O)c1nn(Cc2ccc(F)cc2)c2ccccc12)C(N)=O` [AB‐FUBINACA], on human CB1 receptor [1], the “G s (+PTX) E max (% FSK)” value was found to be 144 ± 12 % FSK, the “effect … of FSK-induced cAMP response” value is on record as “inhibited”, the “effect on cAMP relative to CP55940” value is reported as “up to 2.5 times” and the “increase in cAMP levels above that produced by FSK alone” value (from here on “increase … by FSK alone”) is “more than 30%”. At human CB1 receptor [1] (setting [7]), the concentration for a half-maximal effect (EC50) is 383 nM. At human CB1 receptor [4], the “G i (‐PTX) E max (% FSK)” value came out at 61 ± 2 % FSK, the “G i (‐PTX) pEC50” value was 9.0 ± 0.2 (0.96), the “Gi (-PTX) selectivity” value is 348 and the “effect of SR141716A pretreatment on SCRA-induced inhibition of cAMP signaling” value is on record as “blocked”. Besides, the EC50 on human CB1 receptor [4] (setting [6]) is 0.96 nM. Besides, at human CB1 receptor [4] (read-out: Gi (-PTX) EC50 (converted)), the EC50 was 1.1 nM.
`CCCCCn1nc(C(=O)N[C@H](C(N)=O)C(C)C)c2ccccc21` [AB‐PINACA]: the “increase … by FSK alone” value on human CB1 receptor [1] was “more than 30%”.
Consider `O=C(c1cccc2ccccc12)c1cn(CCCCCF)c2ccccc12` [AM‐2201], for which the “induced seizures, mechanism” value in the series on CB1 [3] was “CB1‐mediated”.
In the case of `CCCCCCC(C)(C)c1ccc([C@@H]2C[C@H](O)CC[C@H]2CCCO)c(O)c1` [CP55940, reference compound], at human CB1 receptor [1], the “increase … by FSK alone” value was determined as 19%.
Regarding `CC(C)(NC(=O)c1nn(CCCCC#N)c2ccccc12)c1ccccc1` [CUMYL‐4CN‐BINACA, reference compound], the “induced seizures, mechanism” value with CB1 [3] was “CB1‐mediated”.
For `CCCCCn1cc(C(=O)c2cccc3ccccc23)c2ccccc21` [JWH‐018], at human CB1 receptor [1], the “G s (+PTX) E max (% FSK)” value was determined as 114 ± 4 % FSK, the “G s (+PTX) pEC50” value is given as 6.5 ± 0.7 (288), the “Gs (+PTX) pEC50” value is 6.7 ± 0.7 (221) and the “activation of Gαs pathway (increase over FSK alone)” value is given as 14%. The “effect … of FSK-induced cAMP response” value at human CB1 receptor [1] is “inhibited”. On human CB1 receptor [1] (setting [5]), the concentration giving a half-maximal response (EC50) was 288 nM. The 50% effective concentration (EC50) at human CB1 receptor [1] (setting [7]) was 221 nM. Also, the “induced seizures, mechanism” value in the series on CB1 [3] was “CB1‐mediated”. Besides, at human CB1 receptor [4], the “G i (‐PTX) pEC50” value was 7.8 ± 0.2 (16), the “G i (−PTX) selectivity” value was determined as 18, the “Gi (-PTX) selectivity” value came to 14 and the “effect of SR141716A pretreatment on SCRA-induced inhibition of cAMP signaling” value is “blocked”. Besides, the EC50 on human CB1 receptor [4] (setting [6]) is 16 nM.
`CCCCCn1cc(C(=O)Oc2cccc3cccnc23)c2ccccc21` [PB‐22]: on human CB1 receptor [1], the “G s (+PTX) E max (% FSK)” value is 130 ± 3 % FSK, the “G s (+PTX) pEC50” value is recorded as 7.2 ± 0.5 (69) and the “increase … by FSK alone” value is “more than 30%”. Also, the EC50 at human CB1 receptor [1] (setting [5]) is 69 nM. Moreover, on human CB1 receptor [4], the “G i (‐PTX) E max (% FSK)” value stood at 64 ± 3 % FSK, the “G i (‐PTX) pEC50” value was 8.6 ± 0.2 (2.5) and the “G i (−PTX) selectivity” value is 28. For the same compound, the concentration for a half-maximal effect (EC50) at human CB1 receptor [4] (setting [6]) is 2.5 nM.
In the case of `CC1(C)C(C(=O)c2cn(CCCCCF)c3ccccc23)C1(C)C` [XLR‐11], on human CB1 receptor [1], the “G s (+PTX) E max (% FSK)” value is recorded as 124 ± 5 % FSK, the “G s (+PTX) pEC50” value is 5.3 ± 0.8 (4720) and the “Gs (+PTX) pEC50” value is 5.2 ± 0.8 (6490). Also, the EC50 at human CB1 receptor [1] (setting [5]) is 4720 nM. At human CB1 receptor [1] (setting [7]), the EC50 is 6490 nM. Besides, at human CB1 receptor [4], the “G i (‐PTX) E max (% FSK)” value is reported as 63 ± 2 % FSK, the “G i (‐PTX) pEC50” value is listed as 7.2 ± 0.2 (63), the “G i (−PTX) selectivity” value was 75 and the “Gi (-PTX) selectivity” value was 103. Also, at human CB1 receptor [4] (setting [6]), the half-maximal effective concentration (EC50) is 63 nM.
